According to patent publication US5015737A, “Therapeutically useful beta-lactams” (The Upjohn Company, priority 1990, dated 1991):
Converted amounts (≈) assume the structure as drawn. Where two headings read alike, the source gives them in different places.

Tests used:
Experiment in all cases: MIC determination by agar dilution (Mueller Hinton Agar)
Assay type in all cases: cell-based
Citrobacter freundii = conditions: Culture Number 3507, 35° C., 20 hours, read-out: Minimum Inhibitory Concentration
Procedure: (§1) The compounds of this invention and their respective pharmaceutically acceptable salts have antibiotic activity against a variety of gram-negative bacteria including Escherichia coli, Klebsiella pneumoniae and Pseudomonas aeruginosa. The compounds are useful for treating bacterial infections in animals, including and most preferably humans. Compounds of the invention are tested for in vitro antimicrobial activity using standard testing procedures such as the determination of minimum inhibitory concentration (MIC) by methods described in "Methods for Dilution Antimicrobial Susceptibility Tests for Bacteria That Grow Aerobically" (M7-A) Published December 1985 by the National Committee for Clinical Laboratory standards, 771 East Lancaster Avenue, Villanova, Pa., 19084. Briefly, MIC values are determined in unsupplemented Mueller Hinton Agar (MHA). The compounds tested are diluted serially into molten MHA at 47° C. The agar is poured into petri dishes and allowed to harden. The various bacteria used for testing are grown overnight on MHA at 35° C. and transferred to Tryptiease Soy Broth (TSB) until a turbidity of 0.5 McFarland standard is obtained. The bacteria are diluted one to twenty in TSB and inoculated on the plates (1 μl using a Steers replicator). […] The MIC test results of four typical compounds of this invention.

Enterobacter cloacae = conditions: 20 h, read-out: Minimum Inhibitory Concentration
Procedure: as §1

Klebsiella pneumoniae = conditions: Culture Number 58, 35° C., 20 hours, read-out: Minimum Inhibitory Concentration
Procedure: as §1

Streptococcus pyogenes = conditions: Culture Number 152, 35° C., 20 hours, read-out: Minimum Inhibitory Concentration
Procedure: as §1

Staphylococcus aureus = conditions: 35° C., 20 hours; for MIC: Staphylococcus aureus, read-out: Minimum Inhibitory Concentration
Procedure: as §1

Streptococcus faecalis = conditions: Enterococcus faecalis, 35° C., 20 hours, read-out: Minimum Inhibitory Concentration
Procedure: as §1

Streptococcus pneumoniae = conditions: Culture Number 41, 35° C., 20 hours, read-out: Minimum Inhibitory Concentration
Procedure: as §1

Pseudomonas aeruginosa = conditions: 20 h, read-out: Minimum Inhibitory Concentration
Procedure: as §1

Serratia marcescens = conditions: Culture Number 6888, 35° C., 20 hours, read-out: Minimum Inhibitory Concentration
Procedure: as §1

Klebsiella oxytoca = conditions: 20 h, read-out: Minimum Inhibitory Concentration
Procedure: as §1

Staphylococcus epidermis = conditions: Culture Number 30031, 35° C., 20 hours, read-out: Minimum Inhibitory Concentration
Procedure: as §1

Escherichia coli = conditions: 20 h, read-out: Minimum Inhibitory Concentration
Procedure: as §1

Proteus vulgaris = conditions: Culture Number 9679, 35° C., 20 hours, read-out: Minimum Inhibitory Concentration
Procedure: as §1

Acinetobacter sp. = conditions: Culture Number 30278, 35° C., 20 hours, read-out: Minimum Inhibitory Concentration
Procedure: as §1

[1] = test system: Acinetobacter calcoaceticus; conditions: Culture Number 12170, 35° C., 20 hours, read-out: Minimum Inhibitory Concentration
Procedure: as §1

| MIC (Citrobacter freundii) | MIC (Enterobacter cloacae; Culture Number 9381, 35° C.) | MIC (Enterobacter cloacae; Culture Number 9382, 35° C.) | MIC (Klebsiella pneumoniae) | MIC (Streptococcus pyogenes) | MIC (Staphylococcus aureus; Culture Number 9218) | MIC (Streptococcus pneumoniae) | MIC (Pseudomonas aeruginosa; Culture Number 231, 35° C.) | MIC (Pseudomonas aeruginosa; Culture Number 9191, 35° C.) | MIC (Serratia marcescens) | MIC (Klebsiella oxytoca; Culture Number 9383, 35° C.) | MIC (Klebsiella oxytoca; Culture Number 9384, 35° C.) | MIC (Escherichia coli; Culture Number 9379, 35° C.) | MIC (Escherichia coli; Culture Number 9380, 35° C.) | MIC (Escherichia coli; Culture Number 9451, 35° C.) | MIC (Proteus vulgaris) | MIC (Pseudomonas aeruginosa; Culture Number 6676, 35° C.) | Compound | Minimum Inhibitory Concentration (Staphylococcus aureus; Culture Number 6685) | Minimum Inhibitory Concentration (Staphylococcus aureus; Culture Number 9213) | Minimum Inhibitory Concentration (Staphylococcus aureus; Culture Number 9218) | also measured |
| --- | --- | --- | --- | --- | --- | --- | --- | --- | --- | --- | --- | --- | --- | --- | --- | --- | --- | --- | --- | --- | --- |
| 0.03 µg/mL (≈ 0.0438 µM) | 8 µg/mL (≈ 11.7 µM) | 1 µg/mL (≈ 1.46 µM) | 0.5 µg/mL (≈ 0.73 µM) | 64 µg/mL (≈ 93.5 µM) | > 64 µg/mL | > 64 µg/mL | 0.25 µg/mL (≈ 0.365 µM) | 0.25 µg/mL (≈ 0.365 µM) | 0.03 µg/mL (≈ 0.0438 µM) | 0.125 µg/mL (≈ 0.183 µM) | 0.06 µg/mL (≈ 0.0876 µM) | < 0.008 µg/mL | < 0.008 µg/mL | < 0.008 µg/mL | 0.06 µg/mL (≈ 0.0876 µM) |  | CC(C)(O/N=C(\C(=O)N[C@H]1CN(C(=O)NS(=O)(=O)N[C@H]2CN(C(=O)c3cc(=O)c(O)c[nH]3)NC2=O)C1=O)c1csc(N)n1)C(=O)O [60(b), 3(S)-3-[2-(2-Amino-4-thiazoyl)-Z-(2)-(carboxyisopropyloxyimino)acetamido]-1-[(3-hydroxy-4-pyridon-6-yl)-1-carbonyl-pyrazolidinone-4-(S)-amino]-sulfonyl-amino-carbonyl-2-azetidinone] | > 64 µg/mL | > 64 µg/mL |  | Minimum Inhibitory Concentration (Staphylococcus aureus; Culture Number 3665): > 64 µg/mL; MIC (Streptococcus faecalis; Culture Number 694): > 64 µg/mL; MIC (Staphylococcus epidermis): > 64 µg/mL |
| 0.06 µg/mL (≈ 0.0876 µM) | 4 µg/mL (≈ 5.84 µM) | 1 µg/mL (≈ 1.46 µM) | 0.5 µg/mL (≈ 0.73 µM) | > 64 µg/mL | 64 µg/mL (≈ 93.5 µM) | > 64 µg/mL | 0.25 µg/mL (≈ 0.365 µM) | 0.125 µg/mL (≈ 0.183 µM) | 0.03 µg/mL (≈ 0.0438 µM) | 0.125 µg/mL (≈ 0.183 µM) | 0.125 µg/mL (≈ 0.183 µM) | 0.015 µg/mL (≈ 0.0219 µM) | < 0.008 µg/mL | 0.015 µg/mL (≈ 0.0219 µM) | 0.06 µg/mL (≈ 0.0876 µM) | 2 µg/mL (≈ 2.92 µM) | CC(C)(O/N=C(\C(=O)N[C@H]1CN(C(=O)NS(=O)(=O)N[C@@H]2CN(C(=O)c3cc(=O)c(O)c[nH]3)NC2=O)C1=O)c1csc(N)n1)C(=O)O [60(d), 3(S)-3-[2-(2-Amino-4-thiazolyl)-Z-(2)(carboxyisopropyloxyimino)-acetamido]-1-[(3-hydroxy-4-pyridon-6-yl)-1-carbonyl-pyrazolidinone-4(R)-amino]-sulfonyl-aminocarbonyl-2-azetidinone] |  |  |  | MIC (Acinetobacter sp.): 1 µg/mL (≈ 1.46 µM) |
| 0.06 µg/mL (≈ 0.0859 µM) | 8 µg/mL (≈ 11.5 µM) | 2 µg/mL (≈ 2.86 µM) | 0.5 µg/mL (≈ 0.716 µM) | > 64 µg/mL |  | > 64 µg/mL | 0.125 µg/mL (≈ 0.179 µM) | 0.06 µg/mL (≈ 0.0859 µM) | 0.06 µg/mL (≈ 0.0859 µM) | 0.125 µg/mL (≈ 0.179 µM) | 0.06 µg/mL (≈ 0.0859 µM) | 0.03 µg/mL (≈ 0.0429 µM) | 0.015 µg/mL (≈ 0.0215 µM) | 0.015 µg/mL (≈ 0.0215 µM) | 0.06 µg/mL (≈ 0.0859 µM) | 0.25 µg/mL (≈ 0.358 µM) | C[C@H]1[C@@H](NS(=O)(=O)NC(=O)N2C[C@H](NC(=O)/C(=N\OC(C)(C)C(=O)O)c3csc(N)n3)C2=O)C(=O)NN1C(=O)c1cc(=O)c(O)c[nH]1 [60(p), 3(S)-3-[2-(2-amino-4-thiazoyl)-Z-(2)-(carboxyisopropyloxyimino)-acetamido]-1-[(3-hydroxy-4-pyridon-6-yl)-1-carbonyl-5(S)-methyl-pyrazolidinone-4(R)-amino]-sulfonylaminocarbonyl-2-azetidinone] | > 64 µg/mL | > 64 µg/mL | > 64 µg/mL | MIC (Staphylococcus aureus; Culture Number 3665): > 64 µg/mL; MIC (Streptococcus faecalis; Culture Number 9217): > 64 µg/mL; MIC [1]: 1 µg/mL (≈ 1.43 µM); MIC (Escherichia coli; Culture Number 9952, 35° C.): 0.015 µg/mL (≈ 0.0215 µM) |
| 0.03 µg/mL (≈ 0.0429 µM) | 8 µg/mL (≈ 11.5 µM) | 2 µg/mL (≈ 2.86 µM) | 0.5 µg/mL (≈ 0.716 µM) | > 64 µg/mL |  | > 64 µg/mL | 0.125 µg/mL (≈ 0.179 µM) | 0.125 µg/mL (≈ 0.179 µM) | 0.06 µg/mL (≈ 0.0859 µM) | 0.25 µg/mL (≈ 0.358 µM) | 0.06 µg/mL (≈ 0.0859 µM) | 0.03 µg/mL (≈ 0.0429 µM) | < 0.008 µg/mL | < 0.008 µg/mL | 0.06 µg/mL (≈ 0.0859 µM) | 0.5 µg/mL (≈ 0.716 µM) | C[C@H]1[C@H](NS(=O)(=O)NC(=O)N2C[C@H](NC(=O)/C(=N\OC(C)(C)C(=O)O)c3csc(N)n3)C2=O)C(=O)NN1C(=O)c1cc(=O)c(O)c[nH]1 [60(m), 3(S)-3-[2 (2-amino-4-thiazoyl)-Z-(2)(carboxyisopropyloxyimino)-acetamido]-1-[(3-hydroxy-4-pyridon-6-yl) 1-carbonyl-5(S)-methyl-pyrazolidinone-4(S)-amino]-sulfonylaminocarbonyl-2-azetidinone] | > 64 µg/mL | > 64 µg/mL | > 64 µg/mL | MIC (Staphylococcus aureus; Culture Number 3665): > 64 µg/mL; MIC (Streptococcus faecalis; Culture Number 9217): > 64 µg/mL; MIC [1]: 2 µg/mL (≈ 2.86 µM); MIC (Escherichia coli; Culture Number 9952, 35° C.): 0.015 µg/mL (≈ 0.0215 µM) |
